# Literature values in patent US20090117146A1 (priority 2005, published 2009).
# System: adenyl cyclase
# Conditions: follicles of scalp hair
row,SMILES,effect on adenyl cyclase activity
1,C[C@]12CCC(=O)C[C@@H]1CC[C@@H]1[C@@H]2CC[C@]2(C)[C@@H](O)CC[C@@H]12 [dihydrotestosterone],inhibits adenyl cyclase activity
2,C[C@]12CC[C@H]3[C@@H](CCC4=CC(=O)CC[C@@]43C)[C@@H]1CC[C@@H]2O [testosterone],does not
